Test results as given in patent publication US11622947B2, “Compositions comprising quillaja extract and methods of preparations and use thereof” (American River Nutrition, LLC, priority 2019, dated 2023).
Entries after “also recorded” stand apart in the source; their conditions may differ. Read-outs that look alike come from different tables or passages of the source.

Tests used:
[1] = Dispersibility / sedimentation of active powder with quillaja powder in DI water (time-dependent trial); assay type: physicochemical; conditions: for Relative Dispersibilities without quillaja powder: FIGS. 1-6
Method: This example sets forth compositions and methods for making compositions of one active ingredient with quillaja powder. Each of the compositions is prepared by mixing one active ingredient with quillaja powder at a fixed ratio of about 75:25, about 60:40, about 50:50, about 40:60, or about 25:75. This example also sets forth methods to test the dispersibilities of the resulting compositions.
• 1. Add 5 mL DI water to 15 mL disposable glass test tube • 2. Weight out Active ingredient (back weigh for accuracy) • a. For 100% active ingredient, weigh out close to the target amount, note the weight, then zero the balance (with active ingredient still on it) • b. Add active ingredient to test tube with DI water • c. Place mostly empty powder weight boat back onto scale and record actual weight added • d. For other mixtures of active ingredient and quillaja powder, perform similar but add to new weight boat to mix powders (instead of adding directly to test tube) • 3. Weigh out quillaja powder (back weigh for accuracy) • a. Weigh out close to target amount of quillaja, note the weight, then zero the balance (with quillaja still on it) • b. Add quillaja to mixture weight boat (with active) • c. Place mostly empty quillaja weigh boat back onto scale and record actual weight added • 4. Repeat for all ratios of powder mixtures below (dose-dependent study):
• 5. Mix powders together • 6. Add powder mixture to the test tube with DI water. Vortex for exactly 2 minutes and perform time-dependent study • 7. Let settle for 10 minutes then take picture/note observations such as degree of turbidity, dispersibility, any large solids, etc. • 8. After 30 minutes (total), take picture/note observations • 9. After 2 hours (total), take picture/note observations • 10. After 4 hours (total), take picture/note observations • 11. Take special note of the size of the solid “pellet” that settles out on the bottom • a. Try to measure its size (estimated) by taking the radius/diameter combined with the height
This example sets forth compositions of CoQ10 powder and quillaja powder at fixed ratios of 100:0, about 75:25, about 60:40, about 50:50, about 40:60, and about 25:75 respectively. As used herein in Example A2, CoQ10 powder is ubiquinone powder as CoQ10(ubiquinone) powder. The compositions have been prepared according to experimental procedures in Example 1A. A time-dependent trial of sedimentation rates of the compositions comprising ubiquinone powder and quillaja powder at different ratios in water was conducted at time points of 10 minutes, 30 minutes, 2 hours, and 4 hours are shown in FIG. 1. Regarding the test tubes in each of the pictures of FIG. 1, from right to left, the weight ratios of CoQ10(ubiquinone) powder to quillaja powder are in the order of 100:0, about 75:25, about 60:40, about 50:50, about 40:60, and about 25:75 respectively. […] Increasing extent of turbidity was indicative of the highest dispersibility and solubility.
This example sets forth comparisons of the dispersibilities for compositions of Examples A2-A7, which comprise various active ingredients mixed with quillaja powder at various fixed ratios. After comparing the results shown in FIGS. 1-6, the relative dispersibilities are as following: • a) Relative Dispersibilities without quillaja powder: Quercetin>Berberine>Resveratrol>Curcumin>DIM>CoQ10(ubiquinone) • b) Relative Dispersibilities with quillaja powder at time point of 30 minute or less: Quercetin>(Curcumin=Resveratrol)>(DIM=Berberine)>CoQ10(ubiquinone) • c) Relative Dispersibilities with quillaja powder at time point of 2 hours or more Quercetin>(DIM=Curcumin=Resveratrol)>Berberine>CoQ10(ubiquinone)

[2] = Surface tension interaction by visual observation of glass smearing above the water level; assay type: physicochemical
Method: This example sets forth comparisons of the surface tension interactions of the compositions of Example A2-A7. The surface tension interactions of the compositions of various active ingredients mixed with quillaja powder at various fixed ratios were specifically compared with those of the compositions of various active ingredients without quillaja powder. Surface tension interaction is determined by visual observation of glass smearing of active ingredient powders above the water level. • a) Relative surface tension interaction without quillaja powder: (CoQ10(ubiquinone)≥Curcumin)>(Resveratrol≥DIM)>(Quercetin≥Berberine) • b) Relative surface tension interaction with quillaja powder: […]

[3] = Bioaccessibility of ubiquinol by simulated in vitro digestion; assay type: in vitro ADME; conditions: HPLC of filtered supernatant
From the text: In some embodiments, methods of increasing the bioaccessibility and/or bioavailability of an active ingredient in a subject are provided. The active ingredient can be any active ingredients, such as, but not limited to, those described herein. In some embodiments, the methods comprise administering to the subject any of the compositions provided for herein. The administration can be by any method, such as those described herein. […] An increase in bioaccessibility can be determined by any suitable method. For example, bioaccessibility can be measured by simulated in vitro digestion. […] Without being bound to any particular method, in some embodiments, bioaccessibility is determined by mixing a sample (a composition) with a saliva solution and, optionally, mucin. […] The samples can then be analyzed by HPLC to determine the increase in bioaccessibility. Bioaccessibility can be calculated by dividing the amount of the at least one active ingredient measured by, for example HPLC, by the theoretical (or actual amount of ubiquinol in the sample)×100 to determine the percent bioaccessibility. […]
This example sets forth to test the effect of quillaja powder on bioaccessiblity of ubiquinol. Bioaccessibility of ubiquinol was measured by simulated in vitro digestion. […] Bioaccessibility (%)=(ubiquinol measured by HPLC/theoretical amount of ubiquinol in the sample)×100%.

[4] = active:quillaja 100:0, DI water, 10 minutes, 30 minutes, 2 hours, 4 hours

Row | dispersibility and solubility in water, tube without quillaja powder [1, 4] | Relative surface tension interaction without quillaja powder ([2]; listed as berberine) | dispersibility and solubility in water, tube without quillaja powder [1] | Relative surface tension interaction without quillaja powder ([2]; listed as curcumin) | Relative surface tension interaction without quillaja powder ([2]; listed as quercetin) | Compound | Relative Dispersibilities with quillaja powder at time point of 30 minute or less [1] | Relative Dispersibilities with quillaja powder at time point of 2 hours or more [1] | Relative Dispersibilities without quillaja powder [1] | Relative surface tension interaction without quillaja powder [2] | bioaccessibility of ubiquinol [3]
1 | complete separation | Lowest surface tension | – | – | – | COc1ccc2cc3[n+](cc2c1OC)CCc1cc2c(cc1-3)OCO2 [Berberine, berberine] | Quercetin>(Curcumin=Resveratrol)>(DIM=Berberine)>CoQ10(ubiquinone) | Quercetin>(DIM=Curcumin=Resveratrol)>Berberine>CoQ10(ubiquinone) | Quercetin>Berberine>Resveratrol>Curcumin>DIM>CoQ10(ubiquinone) | (CoQ10(ubiquinone)≥Curcumin)>(Resveratrol≥DIM)>(Quercetin≥Berberine) | –
2 | – | – | complete separation | – | – | COC1=C(OC)C(=O)C(C/C=C(\C)CC/C=C(\C)CC/C=C(\C)CC/C=C(\C)CC/C=C(\C)CC/C=C(\C)CC/C=C(\C)CC/C=C(\C)CC/C=C(\C)CCC=C(C)C)=C(C)C1=O [CoQ10(ubiquinone), ubiquinone] | Quercetin>(Curcumin=Resveratrol)>(DIM=Berberine)>CoQ10(ubiquinone) | Quercetin>(DIM=Curcumin=Resveratrol)>Berberine>CoQ10(ubiquinone) | Quercetin>Berberine>Resveratrol>Curcumin>DIM>CoQ10(ubiquinone) | (CoQ10(ubiquinone)≥Curcumin)>(Resveratrol≥DIM)>(Quercetin≥Berberine); also recorded: Highest surface tension | –
3 | complete separation | – | – | Highest surface tension | – | COc1cc(/C=C/C(=O)CC(=O)/C=C/c2ccc(O)c(OC)c2)ccc1O [Curcumin, curcumin] | Quercetin>(Curcumin=Resveratrol)>(DIM=Berberine)>CoQ10(ubiquinone) | Quercetin>(DIM=Curcumin=Resveratrol)>Berberine>CoQ10(ubiquinone) | Quercetin>Berberine>Resveratrol>Curcumin>DIM>CoQ10(ubiquinone) | (CoQ10(ubiquinone)≥Curcumin)>(Resveratrol≥DIM)>(Quercetin≥Berberine) | –
4 | – | – | complete separation | – | Lowest surface tension | O=c1c(O)c(-c2ccc(O)c(O)c2)oc2cc(O)cc(O)c12 [Quercetin, quercetin] | Quercetin>(Curcumin=Resveratrol)>(DIM=Berberine)>CoQ10(ubiquinone) | Quercetin>(DIM=Curcumin=Resveratrol)>Berberine>CoQ10(ubiquinone) | Quercetin>Berberine>Resveratrol>Curcumin>DIM>CoQ10(ubiquinone) | (CoQ10(ubiquinone)≥Curcumin)>(Resveratrol≥DIM)>(Quercetin≥Berberine) | –
5 | complete separation | – | – | – | – | Oc1ccc(C=Cc2cc(O)cc(O)c2)cc1 [Resveratrol, resveratrol] | Quercetin>(Curcumin=Resveratrol)>(DIM=Berberine)>CoQ10(ubiquinone) | Quercetin>(DIM=Curcumin=Resveratrol)>Berberine>CoQ10(ubiquinone) | Quercetin>Berberine>Resveratrol>Curcumin>DIM>CoQ10(ubiquinone) | (CoQ10(ubiquinone)≥Curcumin)>(Resveratrol≥DIM)>(Quercetin≥Berberine) | –
6 | – | – | – | – | – | COc1c(O)c(C)c(C/C=C(\C)CC/C=C(\C)CC/C=C(\C)CC/C=C(\C)CC/C=C(\C)CC/C=C(\C)CC/C=C(\C)CC/C=C(\C)CC/C=C(\C)CCC=C(C)C)c(O)c1OC [sample A, ubiquinol] | – | – | – | – | 0.88%
